Data as given in patent US20230009608A1, “GRK2 INHIBITORS AND USES THEREOF” (Cygnal Therapeutics, Inc., priority 2020, published 2023).
Where two headings read alike, the source gives them in different places.

Experiments:
GRK2 = target: T1, GRK2 (Homo sapiens, UniProt P25098); assay: ADPGlo GRK2 Inhibition Assay (Example 8); format: biochemical; conditions: read-out: A: Enzymatic GRK2: IC50 (nM) (Example 8)
T1 construct: purchased SignalChem A14-10G
T1 sequence (P25098 1-689): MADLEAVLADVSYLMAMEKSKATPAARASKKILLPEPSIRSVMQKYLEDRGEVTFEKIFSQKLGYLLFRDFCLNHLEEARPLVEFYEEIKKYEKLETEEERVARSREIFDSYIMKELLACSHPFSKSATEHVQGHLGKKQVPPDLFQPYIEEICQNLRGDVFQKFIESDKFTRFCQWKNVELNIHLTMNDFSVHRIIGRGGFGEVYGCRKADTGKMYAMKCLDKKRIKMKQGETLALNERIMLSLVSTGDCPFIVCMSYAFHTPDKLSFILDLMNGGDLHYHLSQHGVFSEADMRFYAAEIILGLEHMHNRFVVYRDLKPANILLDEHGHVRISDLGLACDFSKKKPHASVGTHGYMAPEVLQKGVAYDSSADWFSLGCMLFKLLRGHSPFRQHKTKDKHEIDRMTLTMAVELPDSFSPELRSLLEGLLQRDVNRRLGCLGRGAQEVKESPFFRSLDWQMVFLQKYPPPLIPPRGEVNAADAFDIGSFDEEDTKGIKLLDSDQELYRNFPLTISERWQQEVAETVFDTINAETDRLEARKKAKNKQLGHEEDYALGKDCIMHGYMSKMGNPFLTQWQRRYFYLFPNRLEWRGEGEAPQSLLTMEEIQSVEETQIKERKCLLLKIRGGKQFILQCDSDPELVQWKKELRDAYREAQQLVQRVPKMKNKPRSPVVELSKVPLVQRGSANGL
Procedure, shortened: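 GRK2 (15 nM 2× enzyme solution) was preincubated 15 min with compound, then reacted 180 min at room temperature with 2× mix of 20 μM ATP plus GRKtide in HEPES pH 7.5, MgCl2, Tween-20, DTT. ADP was detected by ADP-Glo luminescence. Percent inhibition was normalised to enzyme and no-enzyme controls, with dose-response curves from threefold dilutions starting at 100 μM.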

[1] = system: PAXF1657 control empty vector cell line; assay: 7-day proliferation assay, PAXF1657 control empty vector cell line (Example 9); format: cell-based; conditions: 168 h; Cell Line: PAXF1657 empty vector (EV) cell line; 7-day; read-out: C: 7-day proliferation assay: IC50 GeoMean
Procedure, shortened: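 PAXF1657 isogenic lines (GRK2-overexpressing vs empty vector; CRISPR GRK2 knockout vs non-targeting control clones) seeded 500 cells/well in RPMI1640/10% FBS and treated next day with 10-point dilutions, 30 μM-0.0002 μM final, 0.3% DMSO. Media with compound refreshed after 3 days; viability read by CellTiter-Glo luminescence at day 7.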

[2] = Enzyme Assay A, ADPGlo (Example 8)

SMILES | IC50 (GRK2; ADPGlo GRK2 enzyme assay) | IC50 [1] | IC50 (GRK2; [2])
COc1ncc(Br)cc1CNC(=O)c1cccc(NCc2nnc(-c3ccncn3)n2CCO)c1 | 4.12 nM | > 30000 nM | –
Cc1ncncc1[C@@H](C)NC(=O)c1cccc(NCc2nnc(-c3ccncn3)n2C)c1 | 15.5 nM | > 30000 nM | –
COc1cccc2c1OCC[C@H]2NC(=O)c1cccc(NCc2nnc(-c3ccncn3)n2C)c1 | – | 7740 nM | 26.1 nM
O=C(NCc1cncnc1)c1cccc(NCc2nnc(-c3ccncc3)[nH]2)c1 | – | > 10000 nM | 34 nM
Cc1cccnc1CNC(=O)c1cccc(NCc2nnc(-c3ccncn3)n2C)c1 [drawing 264] | – | 1610 nM | 14 nM
Cn1c(CNc2cccc(C(=O)NC3CCS(=O)(=O)c4ccc(F)cc43)c2)nnc1-c1ccncn1 (stereo not drawn) | 65.4 nM | 8680 nM | –
Cn1c(CNc2cccc(C(=O)NCc3cccc4c3NC(=O)CO4)c2)nnc1-c1ccncn1 | 9.78 nM | 2990 nM | –
Cn1c(CNc2cccc(C(=O)NCc3ccccc3S(=O)(=O)NC(C)(C)C)c2)nnc1-c1ccncn1 | 54 nM | 4290 nM | –
Cn1c(CNc2cccc(C(=O)NC3COc4ccc(F)cc43)c2)nnc1-c1ccncn1 (stereo not drawn) | 26.6 nM | 1260 nM | –
Cc1ccc(C#N)cc1CNC(=O)c1ccnc(NCc2nnc(-c3ccncn3)n2C)c1 | 7.07 nM | 1410 nM | –
CCC(NC(=O)c1cccc(NCc2nnc(-c3ccncn3)n2C)c1)c1ccccc1OCC(=O)NC (stereo not drawn) | 67.2 nM | > 27800 nM | –
CC(C)n1nccc1CNC(=O)c1cccc(NCc2nnc(-c3ccncc3)[nH]2)c1 | – | > 10000 nM | 20 nM
COc1cc(F)ccc1CNC(=O)c1cccc(NCc2nnc(-c3ccncn3)n2C)c1 | 24.7 nM | 28000 nM | –
Cn1c(CNc2cccc(C(=O)NCc3ccccc3N3CCOCC3)c2)nnc1-c1ccncn1 | 50 nM | 3250 nM | –
O=C(N[C@@H]1COc2cc(F)ccc21)c1cccc(NCc2nnc(-c3ccncc3)n2CCO)c1 | – | 3130 nM | 4.8 nM
Cn1c(CNc2cccc(C(=O)NC3CC(=O)c4ccccc43)c2)nnc1-c1ccncn1 (stereo not drawn) | 19 nM | 867 nM | –
Cn1c(CNc2cccc(C(=O)NCc3ncccc3F)c2)nnc1-c1ccncn1 | – | 164 nM | 69 nM
C#Cc1ccccc1CNC(=O)c1cccc(NCc2nnc(-c3ccncn3)n2C)c1 | 46.4 nM | 2320 nM | –
Cn1c(CNc2cccc(C(=O)NC3CCOc4ccccc43)c2)nnc1-c1ccncn1 (stereo not drawn) | – | 563 nM | 22 nM
Cn1c(CNc2cccc(C(=O)N[C@H]3COc4cc(F)ccc43)c2)nnc1-c1ccncc1 | – | > 7490 nM | 6.81 nM
O=C(N[C@H]1COCc2ccccc21)c1cccc(NCc2nnc(-c3ccncc3)n2CCO)c1 | – | 41.6 nM | 10.9 nM

SMILES | IC50 (GRK2; ADPGlo GRK2 enzyme assay) | IC50 [1] | IC50 (GRK2; [2])
Cn1c(CNc2cccc(C(=O)NCc3cccnc3OC(F)F)c2)nnc1-c1ccncn1 | 16.7 nM | 1440 nM | –
Cn1c(CNc2cccc(C(=O)NCc3ccnc(OCC(F)(F)F)c3)c2)nnc1-c1ccncn1 [drawing 339] | – | 3760 nM | 17 nM
COc1ccc(CNC(=O)c2cccc(NCc3nnc(-c4ccncn4)n3C)c2)c(OC)n1 | 37.2 nM | 797 nM | –
Cn1c(CNc2cccc(C(=O)NCc3ncccc3Cl)c2)nnc1-c1ccncn1 | 48.2 nM | > 16400 nM | –
O=C(N[C@H]1COCc2ccccc21)c1cccc(NCc2nnc(-c3ccncn3)n2CCO)c1 | – | > 2110 nM | 38.1 nM
Cn1c(CNc2cccc(C(=O)NC3CS(=O)(=O)c4ccccc43)c2)nnc1-c1ccncn1 (stereo not drawn) | 20.2 nM | 1440 nM | –
Cn1c(CNc2cccc(C(=O)N[C@@H](C#N)c3cc(F)ccc3F)c2)nnc1-c1ccncn1 | 15.7 nM | 244 nM | –
Cn1c(CNc2cccc(C(=O)NCc3cccc(F)c3F)c2)nnc1-c1ccncn1 | – | > 10000 nM | 16 nM
Cn1c(CNc2cccc(C(=O)NCc3ccon3)c2)nnc1-c1ccncn1 | – | > 30000 nM | 23 nM
COc1cnccc1CNC(=O)c1cccc(NCc2nnc(-c3ccncc3)[nH]2)c1 | – | > 10000 nM | 26 nM
Cc1nnc(CNC(=O)c2cccc(NCc3nnc(-c4ccncc4)[nH]3)c2)n1C1CC1 | – | > 10000 nM | 19 nM
CN1CCC(NC(=O)c2cccc(NCc3nnc(-c4ccncn4)n3C)c2)c2ccccc21 (stereo not drawn) [drawing 321] | – | 9340 nM | 37 nM
Cc1ncccc1CNC(=O)c1cccc(NCc2nnc(-c3ccncc3)[nH]2)c1 | – | > 10000 nM | 19 nM
O=C(NCc1nccc(C(F)F)n1)c1cccc(NCc2nnc(-c3ccncc3)[nH]2)c1 | – | > 10000 nM | 27 nM
Cn1c(CNc2cccc(C(=O)NCc3ccccc3OCCO)c2)nnc1-c1ccncn1 | 48.9 nM | > 6450 nM | –
Cn1ccnc1C(NC(=O)c1cccc(NCc2nnc(-c3ccncc3)[nH]2)c1)C1CC1 (stereo not drawn) [drawing 485] | – | 5510 nM | 10 nM
Cn1c(CNc2cccc(C(=O)NCc3ccc(F)cc3)c2)nnc1-c1ccncn1 | – | 2160 nM | 19 nM
Cn1c(CNc2cccc(C(=O)NCc3cnc4ccccn34)c2)nnc1-c1ccncc1F | 39 nM | > 30000 nM | –
C[C@H](NC(=O)c1cccc(NCc2nnc(-c3ccncc3)n2CCO)c1)c1ncccc1Cl | 28.3 nM | 80.9 nM | –
Cn1c(CNc2cccc(C(=O)N[C@H](C#N)c3cccnc3)c2)nnc1-c1ccncn1 | 20.3 nM | 3430 nM | –
COc1cccc(F)c1C(C)NC(=O)c1cccc(NCc2nnc(-c3ccncn3)n2C)c1 (stereo not drawn) | – | > 10000 nM | 27 nM

SMILES | IC50 (GRK2; ADPGlo GRK2 enzyme assay) | IC50 [1] | IC50 (GRK2; [2])
O=C(N[C@@H]1COc2cc(F)ccc21)c1cccc(NCc2nnc(-c3ccncc3)[nH]2)c1 | – | 607 nM | 7.92 nM
Cn1c(CNc2cccc(C(=O)NCc3cc(Cl)ccn3)c2)nnc1-c1ccncn1 | – | > 30000 nM | 45 nM
CNS(=O)(=O)c1cccc(F)c1CNC(=O)c1cccc(NCc2nnc(-c3ccncc3)[nH]2)c1 | – | 3620 nM | 5.38 nM
CC(NC(=O)c1cccc(NCc2nnc(-c3ccncn3)n2C)c1)c1cn[nH]c1 (stereo not drawn) | – | 16800 nM | 13 nM
C[C@H](NC(=O)c1cccc(NCc2nnc(-c3ccncc3)n2C)c1)c1ncccc1Cl | 2.97 nM | > 1850 nM | –
Cn1cc(CNC(=O)c2cccc(NCc3nnc(-c4ccncn4)n3C)c2)cn1 | – | 9770 nM | 36 nM
CN(C)S(=O)(=O)c1ccccc1CNC(=O)c1cccc(NCc2nnc(-c3ccncn3)n2C)c1 | 47.2 nM | 21500 nM | –
CN(C)c1ncccc1CNC(=O)c1cccc(NCc2nnc(-c3ccncn3)n2C)c1 | 46.1 nM | 1160 nM | –
Cc1cccnc1CNC(=O)c1cccc(NCc2nnc(-c3ccncc3)[nH]2)c1 | 12.2 nM | > 30000 nM | –
Cn1c(CNc2cccc(C(=O)N[C@H]3COCc4c(Cl)cccc43)c2)nnc1-c1ccncc1F | – | 245 nM | 21.9 nM
Cn1c(CNc2cccc(C(=O)NCc3ncnn3-c3ccccc3)c2)nnc1-c1ccncn1 | – | > 10000 nM | 59 nM
CN1Cc2ccccc2C(NC(=O)c2cccc(NCc3nnc(-c4ccncn4)n3C)c2)C1=O (stereo not drawn) | 63.5 nM | > 1900 nM | –
COc1ccc(C)nc1CNC(=O)c1cccc(NCc2nnc(-c3ccncn3)n2C)c1 | 67.5 nM | > 12400 nM | –
[2H]C([2H])(Nc1cccc(C(=O)N[C@@H]2COc3ccccc32)c1)c1nnc(-c2ccncn2)n1CCO | 3.76 nM | 96 nM | –
Cn1c(CNc2cccc(C(=O)NC(c3ccccn3)C3CC3)c2)nnc1-c1ccncn1 (stereo not drawn) | 68.9 nM | 2630 nM | –
Cc1ccnc(CNC(=O)c2cccc(NCc3nnc(-c4ccncn4)n3C)c2)c1 | – | > 10000 nM | 430 nM
Cc1cc(CO)cc(C)c1CNC(=O)c1cccc(NCc2nnc(-c3ccncn3)n2C)c1 | 10.8 nM | 738 nM | –
Cc1ccc(C)c(CNC(=O)c2cccc(NCc3nnc(-c4ccncn4)n3C)c2)n1 | 11.2 nM | > 30000 nM | –
C[C@H](NC(=O)c1cccc(NCc2nnc(-c3ccncn3)n2C)c1)C1NCCS1 (stereo partly drawn) | – | 172 nM | 150 nM
Cc1cccc2ncc(CNC(=O)c3cccc(NCc4nnc(-c5ccncc5F)n4C)c3)n12 | 3.91 nM | > 1360 nM | –
C[C@@H](NC(=O)c1cccc(NCc2nnc(-c3ccncc3)n2C)c1)c1ncccc1Cl | 11.4 nM | > 4780 nM | –
